Here are results for 84 compounds from the COVID Moonshot data (paper PMC7615835).

pIC50: −log10 of the molar value. Where “and” joins values, the source holds several entries; their conditions need not be identical. Identical values can stand only once. A value given as a limit tells only on which side of the number the result lay.

This test concerns the target SARS-CoV-2 Main Protease (SARS-CoV-2) (UniProt P0DTD1).
For the compound `O=C(O)c1ccc(CNCc2c[nH]nc2-c2cccs2)cc1`, the pIC50 is below 4.00. Take `Cc1c(Br)cccc1Nc1cc(Cl)cc(CC(=O)Nc2cncc3ccccc23)c1`: the pIC50 was 5.67. `O=C(Cc1cc(Cl)cc(Nc2ccc3c(c2)OC(F)(F)O3)c1)Nc1cncc2ccccc12` gave a pIC50 of 5.68. The same measure for `CC(C)(C)c1ccc(N(C(=O)c2cnc[nH]2)C(C(=O)NCCc2cccc(F)c2)c2cccnc2)cc1` (centres undefined): 6.53.

In turn, `CCC(=O)Nc1ccc(N(Cc2ccccc2)C(=O)n2nnc3ccccc32)cc1` had a pIC50 below 4.00. Take `O=S(=O)(Nc1ccccc1)c1cc2c(cc1OCc1ccccc1)OCO2`: the pIC50 was 4.14. The same measure for `Cc1nc(Nc2cc(Cl)cc(CC(=O)Nc3cncc4ccccc34)c2)ccc1Br`: 5.68; for `CC(C)(C)c1ccc(N(C(=O)c2cc(O)cc(=O)o2)C(C(=O)NCCc2cccc(F)c2)c2cccnc2)cc1` (centres undefined): below 4.00; for `CC1=C[C@@H](c2c(O)cc(-c3cc4ccc(O)cc4o3)cc2O)[C@@H](C(=O)c2ccc(O)cc2O)[C@H](c2ccc(O)cc2O)C1` (stereo in doubt): below 4.00. Take `COc1ccc2cncc(N3CCC4(CN(S(=O)(=O)CC5(C#N)CC5)Cc5ccc(Cl)cc54)C3=O)c2c1` (centres undefined): the pIC50 was 6.67. Consider `Clc1ccc2c(c1)C1(CCO2)CCN(c2cncc3cccc(Cl)c23)C1` (centres undefined), for which the pIC50 was below 4.00. The result for `C[C@H]1CN(C(=O)OC(C)(C)C)CCN1c1cc(Cl)cc(CC(=O)Nc2cncc3ccccc23)c1` (stereo in doubt) reads 5.66. On to `O=C(NCCc1cccc(F)c1)C(c1cccnc1)N(C(=O)c1cocn1)c1ccc(-n2ccnc2)cc1` (centres undefined), for which the negative-log IC50 (pIC50) was below 4.00. The compound `COC1CC2(C1)CC(N(C(=O)c1cocn1)C(C(=O)NCCc1cccc(F)c1)c1cccnc1)C2` (centres undefined) showed a negative-log IC50 (pIC50) below 4.00. On to `CC(C)(C)c1ccc(N(C(=O)c2cnc(C(C)(C)CF)o2)C(C(=O)NCCc2cccc(F)c2)c2cccnc2)cc1` (centres undefined), for which the pIC50 was below 4.00. The result for `CCN1CCN(c2ccc(Nc3cc(Cl)cc(CC(=O)Nc4cncc5ccccc45)c3)cc2)CC1` reads 5.37; that for `CN(C)c1ncc(C(C(=O)NCCc2cccc(F)c2)N(C(=O)c2cocn2)c2ccc(C(C)(C)C)cc2)cn1` (centres undefined), below 4.00. In turn, `O=C(Cc1cc(Cl)cc(Nc2nc(Cl)nc3nc[nH]c23)c1)Nc1cncc2ccccc12` had a negative logarithm of the IC50 (pIC50) of 5.63. The same measure for `O=C(Nc1cncc2ccccc12)C1CN(S(=O)(=O)[C@@H]2CCC[C@H]2O)Cc2ccc(Cl)cc21` (stereo in doubt): 6.89 and 6.84; for `O=C(Cc1cc(Cl)cc(Nc2ccc(Br)c(Cl)c2Cl)c1)Nc1cncc2ccccc12`: 5.62; for `O=C(Cc1cccc(Cl)c1)Nc1cnccc1-c1ccccc1`: 4.39. The same measure for `COC(=O)C(C)NC(=O)C(c1cccnc1)N(C(=O)c1cocn1)c1ccc(C(C)(C)C)cc1` (centres undefined): 5.14; for `O=C1CC(C(=O)N2CCN(c3cccc(Cl)c3)CC2)c2ccccc2N1` (centres undefined): 4.68; for `O=C(Nc1cccc(F)c1)[C@@H](c1ccccc1)N1Cc2ccccc2C1=O` (stereo in doubt): below 4.00.

Consider `O=C(NCc1ccccn1)[C@@H]1CN(C(=O)CCl)CCN1S(=O)(=O)c1ccsc1` (stereo in doubt), for which the pIC50 is 6.27. As to `CNC(=O)CN1C[C@]2(CC(=O)N(c3cncc4ccccc34)C2=O)c2cc(Cl)ccc2C1=O` (stereo in doubt), the pIC50 is 4.07.

As for `COCc1nc(C)c(C(=O)N(c2ccc(C(C)(C)C)cc2)C(C(=O)NCCc2cccc(F)c2)c2cccnc2)s1` (centres undefined), the pIC50 was below 4.00. On to `COc1ccc([N+](=O)[O-])cc1COC(=O)c1cnc2ccccc2n1`, for which the negative logarithm of the IC50 (pIC50) was below 4.00. `COC(OC)C(=O)N1CCN(Cc2cccc(Cl)c2)CC1` gave a pIC50 of 4.03. Compound `CC(CNC(=O)c1cnc2ccccn12)Nc1nc2ccccc2o1` (centres undefined) gave a pIC50 below 4.00. Turning to `O=C(Cc1cccc(Cl)c1)Nc1cccc2[nH]ncc12`, the pIC50 is below 4.00. `CN(C)C(C(=O)Nc1cncc2ccccc12)c1ccc(Cl)c(Cl)c1` (centres undefined) gave a negative logarithm of the IC50 (pIC50) of 5.37.

Turning to `Cn1cc(NC(=O)Cc2cccc(Cl)c2)c2ccccc2c1=O`, the pIC50 was below 4.00.

Regarding `COc1cc2cncc(NC(=O)Cc3cccc(Cl)c3)c2cc1F`, the pIC50 is below 4.00. Compound `Cc1ccn2c(NC(=O)Cc3cccc(Cl)c3)cnc2c1` gave a pIC50 of 4.71. In turn, `O=C(Cc1cccc(Cl)c1)Nc1cncc2cc(OCC(F)(F)F)ccc12` showed a pIC50 below 4.00.

In turn, `CCC(c1ccncc1)N(C)C(=O)Cc1c[nH]c2ncccc12` (centres undefined) showed a pIC50 below 4.00. `CCc1nc(-c2nnc[nH]2)sc1C(=O)N(c1ccc(C(C)(C)C)cc1)C(C(=O)NCCc1cccc(F)c1)c1cccnc1` (centres undefined) gave a pIC50 below 4.00. Turning to `COc1cccc(CC(=O)Nc2cncc3ccccc23)c1`, the pIC50 was 4.52. Compound `CC(=O)NC(C(=O)Nc1cncc2ccccc12)c1ccc(Cl)c(Cl)c1` (centres undefined) gave a pIC50 of 5.39.

Consider `Nc1cccc2c(=O)[nH]n(-c3cc(Cl)cc(CC(=O)Nc4cncc5ccccc45)c3)c(=O)c12`, for which the pIC50 is 5.23.

With `CC(C)NC(=O)CN1CC(C(=O)Nc2cncc3ccccc23)c2cc(Cl)ccc2C1=O` (centres undefined), the negative logarithm of the IC50 (pIC50) was 6.41. The compound `Cc1cc2c(cc1S(=O)(=O)N1CCN(c3ccccc3)CC1)OCO2` showed a pIC50 below 4.00. Consider `O=C(Cc1cccc(Cl)c1)Nc1cncc2c1OCCC2`, for which the negative-log IC50 (pIC50) is 5.00 and 4.85. The same measure for `O=C(Nc1cncc2ccccc12)[C@H]1COc2ccc(Cl)cc2C1` (stereo in doubt): below 4.00; for `COCc1csc(CNC(=O)c2ncc(Cl)cc2Cl)c1`: below 4.00; for `O=C(Nc1cncc2c1CNCC2)C1CCOc2ccc(Cl)cc21` (centres undefined): 5.21. In the case of `Cn1ccn2c(CNC(=O)c3ccc4ncsc4c3)nnc2c1=O`, the pIC50 was below 4.00. Regarding `Cc1cc(O)cc(C)c1C[C@H](NC(=O)[C@H](N)CCCNC(=N)N)C(=O)N[C@@H](CCCCN)C(=O)N[C@@H](Cc1ccccc1)C(N)=O` (stereo in doubt), the pIC50 is below 4.00. `CS(=O)(=O)c1ccc(O)c(Nc2cc(Cl)cc(CC(=O)Nc3cncc4ccccc34)c2)c1` showed a negative-log IC50 (pIC50) of 5.12.

The compound `O=C(Cc1cc(Cl)cc(Nc2ncc(Br)cc2O)c1)Nc1cncc2ccccc12` gave a pIC50 of 5.49. `CC1NC(=O)c2ccc(Cl)cc2C1C(=O)Nc1cncc2ccc(S(C)(=O)=O)cc12` (centres undefined) showed a pIC50 of 5.70. `C=CC(=O)N(c1ccc(C(C)(C)C)cc1)C(C(=O)NCc1cccnc1)c1cccnc1` (centres undefined) gave a pIC50 of 4.30. On to `Cc1cc(F)cc(Br)c1Nc1cc(Cl)cc(CC(=O)Nc2cncc3ccccc23)c1`, for which the pIC50 is 5.70.

The compound `O=C(Nc1cncc2ccccc12)C12CCC(O1)c1cc(Cl)ccc12` (centres undefined) had a pIC50 of 5.62. `Cc1ccncc1NC(=O)Cc1cc(Cl)cc(-c2ncc[nH]2)c1` gave a negative logarithm of the IC50 (pIC50) below 4.00.

The compound `O=C(NCC1CCCCC1)[C@@H]1CN(C(=O)CCl)CCN1S(=O)(=O)c1ccsc1` (stereo in doubt) had a pIC50 of 5.96. On to `CC(C)(C)c1ccc(N(C(=O)c2ccco2)C(C(=O)NCc2ccccc2)c2cccnc2)cc1` (centres undefined), for which the pIC50 was 5.36. The same measure for `CC(C)(C)c1ccc(N(C(=O)c2nc3ncc(CCO)cn3n2)C(C(=O)NCCc2cccc(F)c2)c2cccnc2)cc1` (centres undefined): below 4.00; for `Cn1ncc2cc(N(C(=O)c3cocn3)C(C(=O)NCCc3cccc(F)c3)c3cccnc3)ccc21` (centres undefined): 4.32; for `O=C(Nc1cncc2ccccc12)C1CCOc2c1ccc(Cl)c2Cl` (centres undefined): 5.48. The same measure for `O=C(Cc1cc(Cl)cc(Nc2ccc(Cl)c(Cl)c2)c1)Nc1cncc2ccccc12`: 5.64; for `CCCc1nn(C)c(C(=O)Nc2cc(Cl)cc(CC(=O)Nc3cncc4ccccc34)c2)c1N`: 5.13. `CC(C)CS(=O)(=O)N1Cc2ccc(Cl)cc2C(C(=O)Nc2cncc3ccccc23)C1` (centres undefined) had a pIC50 of 6.97.

`CS(=O)(=O)CCN1CC(C(=O)Nc2cncc3ccccc23)c2cc(Cl)ccc2C1=O` (centres undefined): the pIC50 was 6.75. In turn, `N#Cc1ccc(Nc2cc(Cl)cc(CC(=O)Nc3cncc4ccccc34)c2)c(I)c1` showed a negative logarithm of the IC50 (pIC50) of 5.79. The compound `O=C(Nc1[nH]nc2cccnc12)C1CCOc2ccc(Cl)cc21` (centres undefined) had a negative logarithm of the IC50 (pIC50) below 4.00. `Cc1ccc2cncc(NC(=O)Cc3cccc(Cl)c3)c2c1`: the pIC50 is 6.27. In turn, `CS(=O)(=O)c1ccc2c(NC(=O)C3CN(CC(=O)NC4CC4)C(=O)c4ccc(Cl)cc43)cncc2c1` (centres undefined) had a pIC50 of 6.67.

`COc1ccc2c(NC(=O)C3CN(S(=O)(=O)CC4(C#N)CC4)Cc4ccc(Cl)cc43)cncc2c1` (centres undefined) had a negative logarithm of the IC50 (pIC50) of 6.47.

`Cc1cccc(C)c1NC(=O)[C@@H]1CN(C(=O)CCl)CCN1S(=O)(=O)c1ccsc1` (stereo in doubt) had a pIC50 of 5.79.

`CSCCNC(=O)C(c1cccnc1)N(C(=O)c1cocn1)c1ccc(C(C)(C)C)cc1` (centres undefined) had a pIC50 of 5.61. The same measure for `COc1ccc2cncc(NC(=O)[C@@H]3CCNc4cc(Cl)c(Cl)cc43)c2c1` (stereo in doubt): 4.57; for `CNC(=O)CN1Cc2ccc(Cl)cc2C2(CCN(c3cncc4ccc(OCCN(C)C)cc34)C2=O)C1` (centres undefined): 6.68; for `COC[C@@]1(C(=O)Nc2cncc3ccccc23)CCOc2cc(Cl)c(Cl)cc21` (stereo in doubt): 4.89 and 4.66. For `Cc1cc(C(=O)CCl)c(C)n1CC1COc2ccccc2O1` (centres undefined), the pIC50 is 5.55. In turn, `NC(=O)C12COC(CNC(=O)CC3(C(=O)Nc4cncc5ccccc45)CCOc4ccc(Cl)cc43)(C1)C2` (centres undefined) gave a pIC50 of 5.04.

With `N#CCC1(CS(=O)(=O)N2Cc3ccc(Cl)cc3C(C(=O)Nc3cncc4ccccc34)C2)CC1` (centres undefined), the pIC50 was 6.89. In the case of `O=C(CC1(C(=O)Nc2cncc3ccccc23)CCOc2ccc(Cl)cc21)N1CCC2C1CCCN2CCO` (centres undefined), the negative-log IC50 (pIC50) was 5.33. Against the preceding compound, the pIC50 is 1.56 log units lower.

The compound `O=C(Nc1cnc2nccn2c1)c1cn2c(Br)cnc2s1` showed a pIC50 below 4.00. In the case of `CC(=O)c1ccc(N(C(=O)c2ccco2)C(C(=O)NCCc2cccc(F)c2)c2cccnc2)cc1` (centres undefined), the pIC50 was 4.25. Compound `CC(c1ccccc1)N(C(=O)c1cnc[nH]1)C(C(=O)NCCc1cccc(F)c1)c1cccnc1` (centres undefined) had a pIC50 below 4.00. With `O=C(Cc1cc(Cl)cc(CC2CC(=O)N2)c1)Nc1cncc2ccccc12` (centres undefined), the pIC50 is 5.34. Regarding `O=C(NCCc1cccc(F)c1)C(c1cccnc1)N(C(=O)c1cnc[nH]1)c1ccc2c(c1)COCC2` (centres undefined), the pIC50 was below 4.00.

Usually pIC50 stands for the IC50 on a negative log10 scale, so that one unit is a factor of ten. Read a low pIC50 as a large IC50.
